Results reported in patent US6417174B1, “Inhibitors of β-lactamases and uses therefor” (Northwestern University, priority 1997, dated 2002).
Read-outs that look alike come from different tables or passages of the source.

Tests used:
[1] = target: AmpC β-lactamase from E. coli (Escherichia coli, UniProt P00811); test: biochemical; type: biochemical
[2] = target: Enterobacter cloacae P99 β-lactamase (Enterobacter cloacae, UniProt P05364); conditions: Dryjanski and Pratt, Biochemistry 34, 3561-3568 (1995); cited from earlier work
[3] = target: T1, TEM-1 β-lactamase from E. coli (Escherichia coli, UniProt P62593); test: Inhibition of TEM-1 β-lactamase, spectrophotometric assay (FAP substrate); type: biochemical
T1 construct: gift: Natalie Strynadka, University of Alberta

[4] = tested on: MC4100/AmpC-Enter (OmpF-); test: Antibacterial activity, wider range of bacteria; type: cell-based, E. coli; conditions: Table 6
Procedure: (§1) Bacterial cell culture testing was performed and interpreted following the guidelines of the National Committee for Clinical Laboratory Standards (National Committee for Clinical Laboratory Standards. Methods for Dilution Antimicrobial Susceptibility Tests for Bacteria that Grow Aerobically. Approved Standard M7-A3. National Committee for Clinical Laboratory Standards, Villanova, Pa. 1993). After incubation, the growth of the cells was visually inspected. The minimum inhibitory concentration (MIC) is the lowest concentration where there no cell growth was observed.
(§2) All bacterial strains and plasmids are available from Jesus Blazquez and Fernando Baquero, Servicio de Microbiologia, Hospital Ramon y Cajal National Institute of Health, Madrid, Spain.

MC4 100/AmpC-Enter = test: Antibacterial activity, wider range of bacteria; type: cell-based, E. coli; conditions: Table 6
Procedure: as §1, §2

[5] = tested on: MC4100/AmpC-Enter (OmpC-); test: Antibacterial activity, wider range of bacteria; type: cell-based, E. coli; conditions: Table 6
Procedure: as §1, §2

[6] = tested on: MC4100/AmpC-Enter (OmpR-); test: Antibacterial activity, wider range of bacteria; type: cell-based, E. coli; conditions: Table 6
Procedure: as §1, §2

[7] = tested on: β-lactamase derepressed strain of Enterobacter cloacae (Ent-Der); test: microbe, parasite or virus in culture; type: cell-based; on MIC of ceftazidime plus inhibitor: values in µg/ml
Procedure: (§3) After incubation, the growth of the cells was visually inspected. The minimum inhibitory concentration (MIC) is the lowest concentration where there no cell growth was observed.
(§4) The following strains were used: Enterobacter cloacae cell line with derepressed β-lactamase production (Ent-Der), and Escherichia coli RYC1000 (araD139 D lacU169 rpsL D rib7 thiA gyrA recA56) cell lines, harboring the plasmid pBGS19 (with no β-lactamase), or the β-lactamase containing plasmids pBGAmpC (AmpC β-lactamase from E. coli; Eco-AmpC), or pBGAmpC-MHN (AmpC β-lactamase from Enterobacter cloacae; Eco-AmpCEnt). […] TEM-10 and TEM-24 differ from TEM-1 due to the following point substitutions: TEM-10 (R164S, E240K); TEM-24 (L102K, L162S, S235T, A237K). TEM-10 and TEM-24 also differ from TEM-1 in being extended spectrum enzymes (i.e., they react with a greater range of substrates than TEM-1). Also tested were clinical isolates of Pseudomonas aeruginosa. All bacterial strains and plasmids are available from Jesus Blazquez and Fernando Baquero, Servicio de Microbiologia, Hospital Ramon y Cajal, National Institute of Health, Madrid, Spain.
(§5) Several ratios, including 1:1, 2:1, 4:1, and 1:3, of β-lactam antibiotic (amoxicillin (AX) or ceftazidime (CAZ)) to boronic acid compound were used in the assays. Tazobactam (TAZO), a clinically used β-lactamase inibitor, was used as a positive control.

[8] = tested on: E. coli RYC1000 harboring plasmid pBGTEM-24 (TEM-24 β-lactamase); test: microbe, parasite or virus in culture; type: cell-based, Escherichia coli; conditions: Table 3A; on MIC of ceftazidime plus inhibitor: values in µg/ml
Procedure: as §3, §4, §5

[9] = tested on: E. coli RYC1000 harboring plasmid pBGAmpC-MHN (AmpC β-lactamase of Enterobacter cloacae); test: microbe, parasite or virus in culture; type: cell-based, Escherichia coli; on MIC of ceftazidime plus inhibitor: values in µg/ml
Procedure: as §3, §4, §5

[10] = tested on: E. coli RYC1000 harboring plasmid pBGS19 (no β-lactamase); test: microbe, parasite or virus in culture; type: cell-based, Escherichia coli
Procedure: as §3, §4, §5

[11] = tested on: Ps. aeruginosa-2 (clinical isolate); test: Antibacterial activity, wider range of bacteria; type: cell-based, Pseudomonas aeruginosa; conditions: Table 6
Procedure: as §1, §2

[12] = tested on: Ps. aeruginosa-3 (clinical isolate); test: Antibacterial activity, wider range of bacteria; type: cell-based, Pseudomonas aeruginosa; conditions: Table 6
Procedure: as §1, §2

[13] = tested on: Citrobacter freundii derrepressed (clinical isolate); test: Antibacterial activity, wider range of bacteria; type: cell-based; conditions: Table 6
Procedure: as §1, §2

[14] = tested on: Enterobacter cloacae derrepressed (clinical isolate); test: Antibacterial activity, wider range of bacteria; type: cell-based; conditions: Table 6
Procedure: as §1, §2

MC4100/AmpC-E. coli = test: Antibacterial activity, wider range of bacteria; type: cell-based; conditions: Table 6
Procedure: as §1, §2

[15] = tested on: MC4100/AmpC-E. coli (OmpC-); test: Antibacterial activity, wider range of bacteria; type: cell-based; conditions: Table 6
Procedure: as §1, §2

[16] = tested on: Pseudomonas aeruginosa-1 (clinical isolate); test: Antibacterial activity, wider range of bacteria; type: cell-based; conditions: Table 6
Procedure: as §1, §2

[17] = tested on: MC4100/AmpC-E. coli (OmpF-); test: Antibacterial activity, wider range of bacteria; type: cell-based; conditions: Table 6
Procedure: as §1, §2

[18] = tested on: E. coli derrepr. (clinical isolate); test: Antibacterial activity, wider range of bacteria; type: cell-based; conditions: Table 6
Procedure: as §1, §2

[19] = tested on: MC4100/AmpC-E. coli (OmpR-); test: Antibacterial activity, wider range of bacteria; type: cell-based; conditions: Table 6
Procedure: as §1, §2

[20] = tested on: E. coli RYC1000 harboring pBGTEM-1 producing TEM-1 β-lactamase (EC-T1); test: microbe, parasite or virus in culture; type: cell-based, Escherichia coli; conditions: Table 4A; EC-T1; proportion 4/1
Procedure: as §3, §4, §5

[21] = tested on: E. coli RYC1000 harboring pBGTEM-10 producing TEM-10 β-lactamase (EC-T10); test: microbe, parasite or virus in culture; type: cell-based, Escherichia coli; conditions: Table 4A; EC-T10; proportion 4/1
Procedure: as §3, §4, §5

[22] = tested on: E. coli RYC1000 harboring pBGAmpC-E. coli producing AmpC (ECR-AmpCEc); test: microbe, parasite or virus in culture; type: cell-based, Escherichia coli; conditions: Table 4A; ECR-AmpCEc; proportion 4/1
Procedure: as §3, §4, §5

[23] = tested on: E. coli RYC1000 harboring a plasmid coding for a mutant of AmpC from Enterobacter (ECR-AmpCEnM); test: microbe, parasite or virus in culture; type: cell-based, Escherichia coli; conditions: Table 4A; ECR-AmpCEnM; proportion 4/1
Procedure: as §3, §4, §5

AmpC β-lactamase from E. coli, sequence (P00811 20-377): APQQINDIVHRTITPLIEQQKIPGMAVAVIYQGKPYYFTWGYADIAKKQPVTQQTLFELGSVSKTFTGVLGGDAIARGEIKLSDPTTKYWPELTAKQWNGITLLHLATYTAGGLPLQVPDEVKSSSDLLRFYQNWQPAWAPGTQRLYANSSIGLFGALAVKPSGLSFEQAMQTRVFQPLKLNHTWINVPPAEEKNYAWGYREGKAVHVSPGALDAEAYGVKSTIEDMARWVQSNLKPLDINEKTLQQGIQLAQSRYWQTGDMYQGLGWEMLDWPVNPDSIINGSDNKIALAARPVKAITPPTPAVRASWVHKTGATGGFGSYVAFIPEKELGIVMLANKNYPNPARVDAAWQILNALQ
T1 sequence (P62593 24-286 limits assumed): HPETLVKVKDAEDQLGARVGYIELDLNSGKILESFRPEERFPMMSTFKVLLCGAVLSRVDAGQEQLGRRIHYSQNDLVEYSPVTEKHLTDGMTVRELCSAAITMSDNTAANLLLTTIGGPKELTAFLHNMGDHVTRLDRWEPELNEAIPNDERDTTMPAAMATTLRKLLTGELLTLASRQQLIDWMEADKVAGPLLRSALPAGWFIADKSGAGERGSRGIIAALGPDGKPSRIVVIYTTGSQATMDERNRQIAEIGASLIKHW
Enterobacter cloacae P99 β-lactamase, sequence (P05364 21-381): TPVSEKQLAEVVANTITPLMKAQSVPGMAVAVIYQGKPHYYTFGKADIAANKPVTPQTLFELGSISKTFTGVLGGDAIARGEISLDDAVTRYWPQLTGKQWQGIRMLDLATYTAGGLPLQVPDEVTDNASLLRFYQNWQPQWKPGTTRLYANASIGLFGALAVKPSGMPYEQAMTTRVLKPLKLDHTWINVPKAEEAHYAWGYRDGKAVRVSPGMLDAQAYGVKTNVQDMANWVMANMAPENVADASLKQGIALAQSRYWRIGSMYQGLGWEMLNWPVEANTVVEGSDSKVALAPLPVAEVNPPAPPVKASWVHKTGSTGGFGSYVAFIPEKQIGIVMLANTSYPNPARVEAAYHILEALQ

CN(C)c1cccc2c(S(=O)(=O)Nc3cccc(B(O)O)c3)cccc12 [NSULFB, m-(dansylamidophenyl)-boronic acid, reference compound]
Ki ([1]; Ki E. coli AmpC): 1.6 µM
inhibitor of Enterobacter cloacae P99 β-lactamase (in words) [2]: submicromolar
Ki [3]: 88 µM

CC(C)(O/N=C(\C(=O)N[C@@H]1C(=O)N2C(C(=O)[O-])=C(C[n+]3ccccc3)CS[C@H]12)c1csc(N)n1)C(=O)O [CAZ, ceftazidime, reference compound]
MIC, agent alone (CAZ alone / BZB only) [4]: 32
MIC, agent alone (CAZ alone / BZB only) (MC4 100/AmpC-Enter): 32
MIC, agent alone (CAZ alone / BZB only) [5]: 16
MIC, agent alone (CAZ alone / BZB only) [6]: 32
MIC ([7]; Enterobacter cloacae, Table 3A, Ent. Der., CAZ alone, read-out: MIC of ceftazidime (CAZ)): 512 µg/mL
MIC ([8]; Escherichia coli, CAZ alone, read-out: MIC of ceftazidime (CAZ)): 256 µg/mL
MIC ([9]; Enterobacter cloacae, Table 3A, AmpC-MHN, CAZ alone, read-out: MIC of ceftazidime (CAZ)): 32 µg/mL
MIC ([10]; Escherichia coli, Table 3A, pBGS19, CAZ alone, read-out: MIC of ceftazidime (CAZ)): < 0.5 µg/mL
MIC, agent alone (CAZ alone / BZB only) [11]: 32
MIC, agent alone (CAZ alone / BZB only) [12]: 64
MIC, agent alone (CAZ alone / BZB only) [13]: 16
MIC, agent alone (CAZ alone / BZB only) [14]: 16
MIC, agent alone (CAZ alone / BZB only) (MC4100/AmpC-E. coli): 8
MIC, agent alone (CAZ alone / BZB only) [15]: 16
MIC, agent alone (CAZ alone / BZB only) [16]: 8
MIC, agent alone (CAZ alone / BZB only) [17]: 32
MIC, agent alone (CAZ alone / BZB only) [18]: 16
MIC, agent alone (CAZ alone / BZB only) [19]: 8

C1COB([C@@H]2CCOC2)OCCN1 [DETHFB, diethanolamine-(3R)-(+)-tetrahydrofurnylboronate]
Ki ([1]; Tables 2A/2B, pH 7.0, 25° C., 100 μM cephalothin, read-out: Ki E. coli AmpC): 1.1 µM
MIC of ceftazidime plus inhibitor ([7]; Table 3A, Ent. Der., proportion 4/1, given as CAZ/inhibitor): 32/8
MIC of amoxicillin plus inhibitor ([7]; Table 4A, Ent-Der., proportion 4/1): 256 µg/mL
MIC of ceftazidime plus inhibitor ([8]; proportion 4/1, given as CAZ/inhibitor): 256/64
MIC of amoxicillin plus inhibitor [20]: 512 µg/mL
MIC of amoxicillin plus inhibitor [21]: 512 µg/mL
MIC of ceftazidime plus inhibitor ([9]; Table 3A, AmpC-MHN, proportion 4/1, given as CAZ/inhibitor): 4/1
MIC of amoxicillin plus inhibitor ([9]; Table 4A, EC-AmpCEn, proportion 4/1): 32 µg/mL
MIC of amoxicillin plus inhibitor [22]: 128 µg/mL
MIC of ceftazidime plus inhibitor ([10]; Table 3A, pBGS19, proportion 4/1): 0.5 µg/mL
MIC of inhibitor used alone without ceftazidime ([10]; Table 3B, pBGS19): >512 µg/mL
MIC of inhibitor used alone without amoxicillin ([10]; Table 4B, EC, not tested above 128 μg/ml, “256” indicates no inhibition of cell growth): 256 µg/mL
MIC of amoxicillin plus inhibitor [23]: 64 µg/mL
Ki ([3]; Tables 2A/2B, pH 7.0, 25° C., 100 μM FAP, N.I. = no inhibition observed at an inhibitor concentration of 100 μM, read-out: Ki E. coli TEM-1): 27 µM
